Reference: patent publication US10087194B2, “Podophyllotoxin derivatives and their use” (California Pacific Medical Center, priority 2015, dated 2018)
pIC50: −log10 of the molar value. Read-outs that look alike come from different tables or passages of the source.

What was measured:
[1] = Toxicity studies in Cynomolgus monkeys (MTD); assay type: in vivo
[2] = tested on: K562 human chronic myeloid leukemia xenograft; experiment: Subcutaneous K562 human chronic myeloid leukemia xenograft model
[3] = Toxicity study (MTD) in normal mice; conditions: single i.p. injection; C3H female normal mice; checked daily for 40 days (MTD40)
Rat MTD study = assay type: in vivo, Sprague-Dawley rats
Procedure: In the rat MTD study, Sprague-Dawley rats were dosed with 801 HCl at a concentration of 6 mg/ml via intravenous infusion or slow intravenous injection. The MTD of 801 in normal rats was 120 mg/kg/day. In the 7-day repeating dose study, the rats were administered with […] via BID slow IV injection for 7 days.

[4] = tested on: HCT116 human colon cancer xenograft; experiment: Subcutaneous HCT116 human colon cancer xenograft model; assay type: in vivo, Mus Musculus; conditions: for TGI: HCT116, day 29
Procedure: Each mouse was inoculated subcutaneously with 5×10^6 HCT116 tumor cells in 0.1 ml PBS for tumor development. Treatments were started when the tumor volume reached 100 mm^3. […] Body weight and tumor volume were measured twice a week.

[5] = tested on: COLO205 human colon cancer xenograft; experiment: Subcutaneous COLO205 human colon cancer xenograft model; assay type: in vivo, Mus Musculus
Procedure: Each mouse was inoculated subcutaneously with 5×10^6 COLO205 tumor cells in 0.1 ml PBS for tumor development. Treatments were started when the tumor volume reached 120 mm^3. […] Body weight and tumor volume were measured twice a week.

[6] = tested on: HCT116 Human Colon Cancer Cells; experiment: Colony formation assay, HCT116; assay type: cell-based
Procedure: (§1) Cancer cells were plated in 60 mm Petri dishes containing 2.7 ml of medium (modified McCoy's 5a medium containing 10% fetal bovine serum and 100 units/ml penicillin and 100 ug/ml streptomycin). The cells were incubated in a CO2 incubator at 37 degree C. for 5 hours for attachment to the bottom of Petri dishes. Drugs were made up fresh in medium at ten times the final concentration, and then 0.3 ml of this stock solution was added to the 2.7 ml of medium in the dish. The cells were then incubated with drugs for 72 hours at 37 degree C. At the end of incubation the drug-containing media were decanted, the dishes were rinsed with 4 ml of Hank's Balance Salt Solution (HBSS), 5 ml of fresh medium was added, and the dishes were returned to the incubator for colony formation. The cell colonies were counted using colony counter after incubation for 7 days (HCT116 cell line), 14 days (VM46 cell line) and 15 days (H23 cell line). Cell survival (%) was calculated from 3 repeated dishes for each drug concentration and the mean values of IC50 (the drug concentration producing 50% inhibition of colony formation) were determined for each tested compound.

[7] = tested on: VM46 Human Colon Cancer Cells Overexpressing Multi-drug Resistant Gene 1; experiment: Colony formation assay, VM46; assay type: cell-based; conditions: read-out: IC50 (VM46)
Procedure: as §1

[8] = tested on: H23 Human Non-small Cell Lung Cancer Cells; experiment: Colony formation assay, H23; assay type: cell-based; conditions: read-out: IC50 (H23)
Procedure: as §1

[9] = tested on: HCT116 human colon cancer xenografts; experiment: Preliminary in vivo efficacy, HCT116 xenografts in nude mice; parameters: species or system nude mice (nu/nu genotype); conditions: single i.p. injection at i.p. MTD doses
Procedure: In vivo anticancer efficacy study was performed on nude mice (nu/nu genotype) bearing HCT116 human colon cancer xenografts. These human tumors grew exponentially following implantation into the flanks of the mice and reached an average tumor volume of 79.85 cu. mm. Treatment was initiated at that time, with the first day of treatment designated as day 0 for all calculations and plots. The 6 mice were injected i.p. with each of four Neovia drug solutions (5% alcohol, 5% Cremophor EL, and 90% saline, 0.5 ml/20 g, single injection). Drug doses (i.p. MTD doses) were 120 mg/kg for Neovia-1, 300 mg/kg for Neovia-2, 120 mg/kg for Neovia-3, and 180 mg/kg for Neovia-4. Control group of mice was treated with vehicle alone. After treatment, tumor sizes were measured by caliper every other day. The measurement of the tumor diameters (d1, d2) in two orthogonal directions was used to calculate the tumor volume (tumor volume=π/6 {(d1+d2)/2}3) using the approximation that the tumors are spherical. Each tumor growth curve for each mouse was plotted. The time (days) required to grow the tumor to the size of 800 cu. mm after various treatments was calculated as tumor growth delay indexes for evaluating the treatment effects. Survival times after treatment was also observed and recorded.

in vivo = conditions: female, C3H, mouse, ip
[10] = Homo sapiens, HCT-116, drugs 72 hours, colonies counted after 7 days, read-out: IC50 (HCT116)
[11] = Homo sapiens, drugs 72 hours, colonies counted after 14 days
[12] = Homo sapiens, drugs 72 hours, colonies counted after 15 days

CCC1(OC(=O)COc2ccc(C(=O)OC3c4cc5c(cc4C(c4cc(OC)c(OC)c(OC)c4)C4C(=O)OCC34)OCO5)cc2)C(=O)OCc2c1cc1n(c2=O)Cc2cc3cc(OC(=O)N4CCC(N5CCCCC5)CC4)ccc3nc2-1.Cl (centres unmarked) [Compound 801-HCl]
MTD for repeating dosing ([1]; 5-day repeat dose, intravenous infusion): 30 mg/kg/day
MTD ([1]; intravenous infusion twice daily with a 5-hour interval): 60 mg/kg/day
Mean Tumor Volume ([2]; 300 mg/kg ip Days 8, 11, 14, Day 8): 159 ± 16 mm^3
Mean Tumor Volume ([2]; 300 mg/kg ip Days 8, 11, 14, Day 11): 221 ± 27 mm^3
Mean Tumor Volume ([2]; 300 mg/kg ip Days 8, 11, 14, Day 14): 164 ± 16 mm^3
Mean Tumor Volume ([2]; 300 mg/kg ip Days 8, 11, 14, Day 18): 47 ± 7 mm^3
Mean Tumor Volume ([2]; 300 mg/kg ip Days 8, 11, 14, Day 21): 39 ± 6 mm^3
Mean Tumor Volume ([2]; 300 mg/kg ip Days 8, 11, 14, Day 25): 74 ± 12 mm^3
Mean Tumor Volume ([2]; 300 mg/kg ip Days 8, 11, 14, Day 28): 95 ± 19 mm^3
maximum BW loss ([2]; 300 mg/kg ip, next day after the 2nd dosing): 7.7%
TGI (Day 25) ([2]; K562, 300 mg/kg ip Days 8, 11, 14): 98%
CR ratio (ratio of complete regression) ([2]; K562, 300 mg/kg ip Days 8, 11, 14, by Day 21): 3/8
MTD Values [3]: 300 mg/kg
MTD (Rat MTD study; normal Sprague-Dawley rats, 6 mg/ml via intravenous infusion or slow intravenous injection): 120 mg/kg/day
TGI ([4]; 125 mg/kg i.p. q3d x 3): 93%
TGI ([5]; 125 mg/kg i.p. q3d x 3, day 29): 70%

CCC1(OC(=O)COc2ccc(C(=O)OC3c4cc5c(cc4C(c4cc(OC)c(OC)c(OC)c4)[C@H]4C(=O)OC[C@@H]34)OCO5)cc2)C(=O)OCc2c1cc1n(c2=O)Cc2cc3c(CN(C)C)c(O)ccc3nc2-1 (some centres unmarked) [Compound N1]
pIC50 [6, 10]: 7.62
pIC50 [7, 11]: 8.10
pIC50 [8, 12]: 8.15

CCC1(OC(=O)COc2ccc(C(=O)OC3c4cc5c(cc4C(c4cc(OC)c(OC)c(OC)c4)C4C(=O)OCC34)OCO5)cc2)C(=O)OCc2c1cc1n(c2=O)Cc2cc3cc(OC(=O)N4CCC(N5CCCCC5)CC4)ccc3nc2-1 (centres unmarked) [Compound N2]
inhibiting the growth of HCT116 human colon cancer xenografts [9]: most promising candidate drug against HCT116 human colon cancer among all 4 compounds
pIC50 ([6]; drugs 72 hours, colonies counted after 7 days, read-out: IC50 (HCT116)): < 6.30
pIC50 ([7]; drugs 72 hours, colonies counted after 14 days): ~6.28
MTD Values [3]: 300 mg/kg
MTD for repeating dosing (Rat MTD study; rats, BID slow IV injection for 7 days): 60 mg/kg/day
pIC50 ([8]; drugs 72 hours, colonies counted after 15 days): 6.34

CCc1c2c(nc3ccc(OC(=O)N4CCC(N5CCCCC5)CC4)cc13)-c1cc3c(c(=O)n1C2)COC(=O)C3(CC)OC(=O)COc1ccc(C(=O)OC2c3cc4c(cc3C(c3cc(OC)c(OC)c(OC)c3)[C@H]3C(=O)OC[C@@H]23)OCO4)cc1 (some centres unmarked) [Compound N3]
pIC50 ([6]; Homo sapiens, HCT-116, read-out: IC50 (HCT116)): 6.55
pIC50 ([7]; Homo sapiens): 6.52
pIC50 ([8]; Homo sapiens): 6.70

CCc1c2c(nc3ccc(O)c(CN(C)C)c13)-c1cc3c(c(=O)n1C2)COC(=O)C3(CC)OC(=O)COc1ccc(C(=O)OC2c3cc4c(cc3C(c3cc(OC)c(OC)c(OC)c3)[C@H]3C(=O)OC[C@@H]23)OCO4)cc1 (some centres unmarked) [Compound N4]
MTD (in vivo): 250 mg/kg
pIC50 [6, 10]: 8.18
pIC50 [7, 11]: 8.30
pIC50 [8, 12]: 7.89

CCc1c2c(nc3ccc(OC(=O)N4CCC(N5CCCCC5)CC4)cc13)-c1cc3c(c(=O)n1C2)COC(=O)[C@]3(O)CC [Irinotecan]
TGI ([4]; 70 mg/kg i.p. q3d x 3): 92%
body weight loss ([4]; HCT116 model, during the treatment period): 8%
TGI ([5]; 70 mg/kg i.p. q3d x 3, day 29): 97%

CCC1(OC(=O)COc2ccc(C(=O)OC3c4cc5c(cc4C(c4cc(OC)c(OC)c(OC)c4)C4C(=O)OCC34)OCO5)cc2)C(=O)OCc2c1cc1n(c2=O)Cc2cc3c(CN(C)C)c(O)ccc3nc2-1.Cl (centres unmarked) [N1 HCL Salt]
MTD Values [3]: 120 mg/kg

CCc1c2c(nc3ccc(OC(=O)N4CCC(N5CCCCC5)CC4)cc13)-c1cc3c(c(=O)n1C2)COC(=O)C3(CC)OC(=O)COc1ccc(C(=O)OC2c3cc4c(cc3C(c3cc(OC)c(OC)c(OC)c3)C3C(=O)OCC23)OCO4)cc1.Cl (centres unmarked) [N3 HCL Salt]
MTD Values [3]: 144 mg/kg

CCc1c2c(nc3ccc(O)c(CN(C)C)c13)-c1cc3c(c(=O)n1C2)COC(=O)C3(CC)OC(=O)COc1ccc(C(=O)OC2c3cc4c(cc3C(c3cc(OC)c(OC)c(OC)c3)C3C(=O)OCC23)OCO4)cc1.Cl (centres unmarked) [N4 HCL Salt]
MTD Values [3]: 180 mg/kg
